The text below walks through data of patent US20260207769A1, “ANTIBODY DRUG CONJUGATES” (YALE UNIVERSITY, priority 2022, published 2026).

Series [1] deals with LoVo colorectal cancer cells. Description: Cell viability of LoVo cells after 7 days of treatment. The class given is cell-based. As for the experimental part: LoVo colorectal cancer cells were treated with SN38, cD31N antibodies, V66 3E10 antibodies, and conjugates of the present disclosure. […] The EC50 values were calculated and are set forth below in Table 3.
The next series relates to BRCA2^−/− DLD-1 cells. Put plainly: Shorter versus longer term treatment, viability of BRCA2-/- DLD-1 cells. The class given is cell-based, human. As for the experimental part: (§1) To determine whether the EC50 values would change based on the duration of the treatment with 3E10-SN38 conjugates, WT or BRCA2^−/− DLD-1 cells were treated with different concentrations of SN38, cD31N antibody, or cD31N-SN38 conjugate and cell viability, and the EC50 values were tracked over time. Shorter term treatment was defined as a 24 hour treatment followed by a change to fresh treatment-free medium. Longer term treatment was defined as treatment without a change of medium for 7 days (e.g., the treatment is not removed).

Series [2] has as its system DNA damage response proteins. Description: Western blot of DNA damage response proteins in SKOV3 cells. It counts as cell-based. Conditions: 100 nM, 24, 48 and 72 hours. On the procedure:
SKOV3 ovarian cancer cells were treated with 100 nM of SN38, cD31N antibody, or cD31N-SN38 as indicated and collected at 24, 48, and 72 hours of treatment for Western blot analysis to measure specific protein markers of DNA damage response as previously described. […] In particular, 7H2AX levels increased over time.
Background: In western blotting, separated proteins are transferred to a membrane and probed.

Series [3] concerns HCT116 colorectal cancer cells. Put plainly: Cell viability of WT HCT116 cells. It counts as cell-based. As for the experimental part: WT and mutant IDH1 (IDH1^mut) HCT116 cells were treated with different concentrations of SN38, cD31N antibody, or cD31N-SN38 conjugate. The effects of 3E10-cD31N-SN38 conjugate treatment on HCT116 WT and HCT116IDH1^mut were investigated.
The test system of series [4] is DNA damage response proteins, such as 7H2AX, p-ATM, and p-ATR. Description: Western blot of DNA damage response proteins in DLD-1 cells after 96 hours. The class given is cell-based, human. Conditions: 100 nM. As for the experimental part: To measure the expression of DNA damage response proteins at a later time point, DLD-1 cells were treated with 100 nM of SN38, cD31N antibody, or cD31N-SN38 conjugate and collected for Western blot after 96 hours (4 days). Results at the 96 hour time point were consistent with the 24 and 48 hour results.

Series [5] relates to DNA damage response proteins such as γH2AX, p-ATM, and p-ATR. Description: Western blot of DNA damage response proteins in IDH1mut HCT116 cells. The class given is cell-based. As to conditions: IDH1mut HCT116, 100 nM, 24 hours. As for the experimental part: DNA damage induced by SN38 or the humanized 3E10-SN38 conjugates in WT and IDH1^mut HCT116 cells was assessed by measuring the levels of proteins involved in DNA damage response, p-ATM, p-ATR, pChk2, pChk1, 7H2AX and H2AX. HCT116 cells were treated with 100 nM of SN38, V66 antibody, or V66-SN38 conjugate and collected for Western blot after 24 hours and the results are shown in FIG. 26. No treatment (NT) was used as control.

Series [6] has the same test system. Put plainly: Western blot of DNA damage response proteins in BRCA2-/- DLD-1 cells. It counts as cell-based, human. On the procedure:
SN38 causes DNA damage via inhibition of topoisomerase I. Therefore, DNA damage was measured in both wild-type (WT) and BRCA2 deficient (BRCA2′) DLD-1 cells by induction of γH2AX after treatment with one of the following: no treatment (NT), SN38 alone (SN38), wild-type 3E10 antibody alone (cWT), 3E10-cD31N antibody alone, cWT-SN38 conjugate, or cD31N-SN38 conjugate. After treatment with 100 nM of the antibody or conjugate for 48 hours, the DLD-1 cells were collected for Western blot analysis to measure 7H2AX protein levels. […] These findings were consistent in both WT and BRCA2^−/− DLD-1 cells, but γH2AX protein levels were elevated across all groups in BRCA2^−/− DLD-1 cells.
DNA damage caused by SN38 or 3E10-SN38 conjugates in WT and BRCA2^−/− DLD-1 cells was assessed by measuring the levels of proteins involved in DNA damage response, p-ATM, p-ATR, pBRCA1, Topoisomerase 1 (TOPO-1), pChk2, pChk1, γH2AX and H2AX. DLD-1 cells were treated with 100 nM of SN38, cWT antibody, cD31N antibody, cWT-SN38 conjugate, or cD31N-SN38 conjugate and collected for Western blot after 24 (FIG. 21A) and 48 hours (FIG. 21B). No treatment (NT) was used as control.

For series [7], the system named is BRCA2^−/− DLD-1 colorectal adenocarcinoma cells. Put plainly: Cell viability assay in BRCA2-/- DLD-1 cells. It counts as cell-based, human. Conditions: BRCA^−/− DLD-1 cells. From the text: Cancer cell lines were acquired from ATCC and cultured according to well known methods in the art. Treatment with cytotoxic agents, antibodies, or ADCs refers to the addition of the cytotoxic agent, antibody or ADC (i.e., DM1 or cD31N-DM1, etc.) to the culture media for a set duration.
BRCA2 deficient (BRCA2′) cells are more sensitive to DM1 because BRCA2 participates in DNA double-stranded break (DSB) repair.

In the next series the test system is WT DLD-1 cells. Put plainly: Shorter versus longer term treatment, viability of WT DLD-1 cells. It counts as cell-based, human. On the procedure:
as §1

The subject of series [8] is SKOV3 ovarian cancer cells. Description: Cell viability of SKOV3 cells at 7 days of treatment. It counts as cell-based. On the procedure: The effect of SN38 and 3E10-SN38 conjugates were investigated in SKOV3 ovarian cancer cells. SKOV3 cells were treated with SN38, various 3E10 antibodies and 3E10-SN38 conjugates.
EC50 values are also included.
The EC50 values were calculated and are set forth below in Table 4.

SMILES strings stand for the structures.

With `CCc1c2c(nc3ccc(O)cc13)-c1cc3c(c(=O)n1C2)COC(=O)[C@]3(O)CC` [SN38, SN-38], the EC50 was 5.8 nM in [1], 0.65 nM in [7] and 2.8 nM in series [8] (7 days of treatment). In addition, the cell viability entry was “strongest effect on cell viability” in series [1]; “cell viability was reduced” in the series on BRCA2^−/− DLD-1 cells (BRCA2-/- DLD-1, day 7 of longer term treatment); “substantial loss in cell viability” in series [3] (5 days of treatment); “substantial loss in cell viability” in [3] (7 days of treatment); “cell viability was reduced” in the series on WT DLD-1 cells (WT DLD-1, day 7 of longer term treatment). The “cell viability and EC50, longer term versus shorter term treatment” value in the series on BRCA2^−/− DLD-1 cells (BRCA2-/- DLD-1, 7 days without change of medium vs 24 hour treatment) was “lower cell viability and lower EC50 values than with shorter term treatment”; with WT DLD-1 cells (WT DLD-1, 7 days without change of medium vs 24 hour treatment), “lower cell viability and lower EC50 values than with shorter term treatment”. In addition, the “protein expression of DNA damage response proteins” value in series [2] is “protein expression of DNA damage response proteins was increased”. In addition, the TOPO-1 levels result was “TOPO-1 levels were also reduced” in series [4]; “reduced TOPO-1 levels” in series [6] (BRCA2-/- DLD-1, 100 nM, 24 and 48 hours). Also, in series [4], the “expression of DNA damage response proteins” value is recorded as “increased expression of DNA damage response proteins”. Further, the “protein levels of DNA damage response proteins” value is “increased the protein levels of DNA damage response proteins such as γH2AX, p-ATM, and p-ATR” in [5]; “increased the protein levels of DNA damage response proteins such as γH2AX, p-ATM, and p-ATR” in [6] (BRCA2-/- DLD-1, 100 nM, 24 and 48 hour time points). Besides, in [6] (BRCA2-/- DLD-1, 100 nM, 24 hours (Example 10)), the “γH2AX induction (Western blot)” value is listed as 7H2AX was induced. The “γH2AX protein levels (Western blot)” value in series [6] (BRCA2-/- DLD-1 cells, 100 nM, 48 hours (Example 5)) is “induced the highest levels of γH2AX expression”. Also, in series [8], the “cell viability at the highest concentrations” value is “about 0%”.

Broadly, the EC50 is the concentration that produces a half-maximal response. Low values mean higher potency in that assay, high ones lower potency in that assay.
